In patent publication US20230399341A1, “7-PHENYL SUBSTITUTED 2-AMINOQUINAZOLINE INHIBITORS OF HPK1” (MERCK SHARP & DOHME LLC, priority 2020, published 2023):

Target: T1, Human HPK1, catalytic domain (Homo sapiens, UniProt Q92918)
T1 sequence (Q92918 1-346): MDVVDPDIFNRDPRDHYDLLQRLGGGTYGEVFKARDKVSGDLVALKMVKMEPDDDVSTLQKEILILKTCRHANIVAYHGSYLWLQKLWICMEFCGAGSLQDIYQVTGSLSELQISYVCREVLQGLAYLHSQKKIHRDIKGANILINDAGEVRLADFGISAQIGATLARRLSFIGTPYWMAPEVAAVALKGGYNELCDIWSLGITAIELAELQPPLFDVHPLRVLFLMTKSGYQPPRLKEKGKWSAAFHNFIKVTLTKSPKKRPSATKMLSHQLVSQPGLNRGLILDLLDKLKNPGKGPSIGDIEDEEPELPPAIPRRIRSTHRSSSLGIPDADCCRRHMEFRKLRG
Assay: HPK1-SLP76 TR-FRET Assay
Type: biochemical
Conditions: 75 pM HPK1, ATP 10 uM, SLP76 10 nM, 30 min pre-incubation, 60 min reaction

Row | SMILES | IC50
1 | Cc1c(-c2c(F)c(N)c3cnc(Nc4cc5c(cc4F)CCN(C)C5)nc3c2Cl)cnc2c1NCCO2 [Compound 2-185, (+ and −)-8-chloro-6-fluoro-N~2~-(6-fluoro-2-methyl-1,2,3,4-tetrahydroisoquinolin-7-yl)-7-(8-methyl-2,3-dihydro-1H-pyrido[2,3-b][1,4]oxazin-7-yl)quinazoline-2,5-diamine] | 0.0303 nM
2 | COc1cc2c(cc1Nc1ncc3cc(C#N)c(-c4cnc5c(c4C)NCCO5)cc3n1)CN(C)CC2 [Compound 1-97, 2-[(6-methoxy-2-methyl-1-1,2,3,4-tetrahydroisoquinolin-7-yl)amino]-7-(8-methyl-2,3-dihydro-1H-pyrido[2,3-b][1,4]oxazin-7-yl)quinazoline-6-carbonitrile] | 53.8 nM
3 | COc1cc2c(cc1Nc1ncc3ccc(-c4cccc(CN)c4)cc3n1)CNCC2 [Compound 1-61, 7-[3-(aminomethyl)phenyl]-N-(6-methoxy-1,2,3,4-tetrahydroisoquinolin-7-yl)quinazolin-2-amine] | 13.9 nM
4 | Cc1c(-c2cc3nc(Nc4ccc5c(c4)CN(C)C5=O)ncc3c(N)c2F)cnc2c1NCCO2 [Compound 2-78, 5-{[5-amino-6-fluoro-7-(8-methyl-2,3-dihydro-1H-pyrido[2,3-b][1,4]oxazin-7-yl)quinazolin-2-yl]amino}-2-methyl-2,3-dihydro-1H-isoindol-1-one] | 0.0198 nM
5 | Cc1c(-c2cc3nc(Nc4ccc5c(c4)CNCCC5)ncc3c(N)c2F)cnc2c1NCCO2 [Compound 2-120, 6-fluoro-7-(8-methyl-2,3-dihydro-1H-pyrido[2,3-b][1,4]oxazin-7-yl)-N~2~- (2,3,4,5-tetrahydro-1H-2-benzazepin-8-yl)quinazoline-2,5-diamine] | 0.0066 nM
6 | COc1cc2c(cc1Nc1ncc3ccc(NCc4cnsn4)cc3n1)CN(C)CC2 [Compound 3-63, N~2~-(6-methoxy-2-methyl-1,2,3,4-tetrahydroisoquinolin-7-yl)-N~7-[(1,2,5-thiadiazol-3-yl)-methyl]quinazoline-2,7-diamine] | 38.3 nM
7 | CNC(=O)C(C)c1ccc(Nc2ncc3cc(F)c(-c4cnc5c(c4C)NCCO5)cc3n2)cc1 (single isomer, unassigned) [Compound 1-117, (R or S)-2-(4-{[6-fluoro-7-(8-methyl-2,3-dihydro-1H-pyrido[2,3-b][1,4]oxazin-7-yl)quinazolin-2-yl]amino}phenyl)-N-methylpropanamide] | 0.0705 nM
8 | COc1cc2c(cc1Nc1ncc3ccc(N4CC(C(N)=O)C4)cc3n1)CN(C)CC2 [Compound 3-53, 1-{2-[(6-methoxy-2-methyl-1,2,3,4-tetrahydroisoquinolin-7-yl)amino]quinazolin-7-yl}-azetidine-3-carboxamide] | 669 nM
9 | COc1cc2c(cc1Nc1ncc3ccc(NCC(=O)N(C)C)cc3n1)CN(C)CC2 [Compound 3-71, N~2~-{2-[(6-methoxy-2-meth-yl-1,2,3,4-tetrahydroisoquinolin-7-yl)amino]quinazolin-7-yl}-N,N-dimethylglycinamide] | 91.7 nM
10 | Cc1c(-c2cc3nc(Nc4ccc(CS(=O)(=O)C5CC5)cc4)ncc3c(N)c2F)cnc2c1NCCO2 [Compound 2-136] | 0.101 nM
11 | COc1cc2c(cc1Nc1ncc3ccc(N4CCCC4=O)cc3n1)CN(C)CC2 [Compound 3-1, 1-{2-[(6-methoxy-2-methyl-1,2,3,4-tetrahydroisoquinolin-7-yl)amino]quinazolin-7-yl}-pyrrolidin-2-one] | 241 nM
12 | Cc1c(-c2c(F)c(N)c3cnc(Nc4ccc5c(c4)CN(C)CC54CC4)nc3c2Br)cnc2c1NCCO2 [Compound 2-111, (+ or −)-8-bromo-6-fluoro-7-(8-methyl-2,3-dihydro-1H-pyrido[2,3-b][1,4]oxazin-7-yl)-N~2~- (2′-methyl-2′,3′-dihydro-1′H-spiro[cyclopropane-1,4′-isoquinolin]-7′-yl)quinazoline-2,5-diamine] | 0.0199 nM
